Tests used:
mice = conditions: six-month old mice; 10 mg/kg oral gavage once a day for 30 days; assessed over final 3 days; vs water; cited from earlier work
[1] = tested on: agitation in patients with Alzheimer's Dementia (AD); assay: Clinical trial of oral fasudil in reducing agitation in patients with Alzheimer's Dementia (CMAI, NPI-Q); assay type: in vivo, human; conditions: cutoff moved from 0 to 35 in 5-point increments; FIG. 3
Procedure: All the patients were treated for 6 weeks with 90 mg per day (30 mg TID) and a subset of patients was treated an additional 6 weeks with 180 mg per day (60 mg TID). […] A variety of assessments were conducted at baseline and at the end of treatment, including the NPI-Q and the CMAI.
Two baseline thresholds were set, and two analyses were done based on the two groupings that resulted. One threshold was based on the agitation/aggression domain of the NPI-Q and the other based on the CMAI score.
The first selection was based on NPI-Q score of ≥4.
The second selection required a baseline CMAI score of ≥20 and this yielded a 13-patient subgroup, having a mean baseline CMAI score of 34.4. […] All the patients selected using the NPI-Q agitation/aggression domain score of ≥4 were also included in this subgroup.
The analysis looked at the CMAI score prior to treatment and compared it to the last day of treatment (6 weeks for the 10 patients on the low dose and 12 weeks for the 3 patients on the high dose).
Finally, to examine the effects of changing the CMAI-C threshold, 5-point increments were used to move the cutoff from 0 to 35. […] It was concluded that setting the CMAI-C threshold of at least 5 provided a meaningful result over the population, even though higher thresholds we more powerful at detecting change.

O=S(=O)(c1cccc2cnccc12)N1CCCNCC1 [fasudil]
amount of time spent in the open arms of the maze (mice): significantly reduced | effect of changing the baseline CMAI-C threshold on magnitude of observed effect [1]: As the threshold increased, so did the magnitude of the observed effect
